Peptide text beside a SMILES is read from it.

The results in this text go back to PMC4889062, “Tachykinin-Related Peptides Share a G Protein-Coupled Receptor with Ion Transport Peptide-Like in the Silkworm Bombyx mori” (PLoS ONE, 2016).

The target of test [1] is T1, BNGR-A24 (Bombyx mori, UniProt B3XXN7).
T1 sequence (B3XXN7 1-391): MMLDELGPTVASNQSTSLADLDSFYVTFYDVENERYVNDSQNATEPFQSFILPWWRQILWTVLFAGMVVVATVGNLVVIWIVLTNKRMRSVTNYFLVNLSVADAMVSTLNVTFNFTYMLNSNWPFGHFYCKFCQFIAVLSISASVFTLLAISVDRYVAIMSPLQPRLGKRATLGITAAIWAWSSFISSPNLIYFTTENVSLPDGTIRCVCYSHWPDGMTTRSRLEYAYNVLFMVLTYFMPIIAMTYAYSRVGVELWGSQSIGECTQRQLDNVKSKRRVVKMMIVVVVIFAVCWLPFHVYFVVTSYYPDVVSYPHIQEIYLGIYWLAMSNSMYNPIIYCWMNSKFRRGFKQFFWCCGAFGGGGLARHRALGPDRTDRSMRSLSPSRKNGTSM
Put plainly: cell-based. How it is done:
The assays were performed as previously reported. Briefly, HEK293T cells seeded on a glass-based dish were co-transfected with pME18S plasmids carrying BNGRs and the promiscuous G protein alpha subunit, Gα15. Following 24 h incubation, the transfected cells were loaded with 500 μL of a Ca^2+ indicator solution (2 μM Fluo-4 AM [Dojin Chemicals, Kumamoto, Japan] and 0.01% Pluronic-F 127 [Anaspec, San Jose, CA, USA] in Opti-MEM [Life Technologies]) and incubated at 37°C for 30 min in a dark room. The cells were washed twice with Ringer’s solution and then 800 μL Ringer’s solution was added to the cells. Within a given run time, 100 μL of the following compounds were added sequentially: Ringer’s solution (at 15 s, vehicle control), the peptide of interest or a mixture with its potential competitor (at 60 s), and 100 μM ATP (at 120 s, an experimental control). Fluo-4-derived fluorescence was chronologically monitored using a confocal laser-scanning microscope (FV-1000D; Olympus, Tokyo, Japan), with the preinstalled dye mode for Fluo-3. At least three independent experiments were performed. Dose-response curves were generated and EC50 values were calculated from the obtained fitting curves.
In order to evaluate whether the three TRP receptor candidates, BNGR-A24, -A32, and -A33, function as receptors for B. mori TRPs, the response of these three BNGRs to chemically synthesized TRPs was examined using the Ca^2+ imaging assay.
The response of HEK293T cells co-expressing BNGR-A24 (A) or BNGR-A32 (B) and promiscuous mouse Gα15 to the TRPs was monitored using the Ca^2+ imaging technique. Dose-response curves are depicted as relative fluorescent intensity (mean ± S.D.; n = 3).

In test [2] the target is T1, BNGR-A24. Put plainly: Competitive binding assay, RR-labeled ligands and CHO cells expressing EGFP-fused BNGR-A24. To be noted: CHO cells, EGFP-fused BNGR-A24, 4°C. As for the experimental part: Binding assays were performed as previously reported. Briefly, CHO cells were transfected with 2 μg of pME18S plasmids harboring enhanced green fluorescent protein (EGFP)-fused BNGR cDNA. The binding assay was performed with cells 24 h post transfection. The cells were pre-incubated at 4°C for 30 min prior to the assay to minimize receptor internalization by ligand binding. Following the addition of 50 μL of non-labeled ligand as a potential competitor, 50 μL of RR-labeled ligand was added. Subsequent to incubation at 4°C for 60 min, the cells were washed twice with an ice-cold fixation buffer (4% formaldehyde in PBS) and then 500 μL of the fixation buffer was added. The fluorescence derived from EGFP and RR was observed using a confocal microscope (FV-1000D) with preinstalled dye modes for EGFP and DsRed, respectively. The fluorescent data obtained from six individual cells of at least two independent experiments were analyzed using Fluoview software (Olympus).
Following 30-min exposure of the cells to RR-labeled rITPL or TK-4, both red fluorescence (derived from the RR-labeled ligands) and green fluorescence (derived from EGFP C-terminally fused to BNGR-A24) were observed on the cell surface, indicating ligand-receptor binding (Fig 4). […] In this case, the addition of 20 μM rITPL reduced the ligand-derived signal by approximately 90% compared to that observed without the addition of unlabeled ligand.
Fig 4 In vitro competitive binding assay of rITPL and TK-4 to BNGR-A24. (A–D) Microscopic imaging. The binding of RR-labeled ligands (A and C, rITPL; B and D, TK-4) and CHO cells expressing EGFP-fused BNGR-A24 was examined in the presence of potential competitors (A, TK-4; B, rITPL; C and D, spantide I [SP]). EGFP and RR fluorescences were observed by confocal microscopy. Co-localization is presented as yellow in the merged images (Merge). Representative images of cells from at least two independent experiments are shown. (E–H) Relative fluorescent intensity obtained from experiment images (A)–(D), respectively. […]

The test system of test [3] is BmN cells (BNGR-A24-expressing). The test can be described thus: Competitive cGMP assay in BmN cells. It is filed as cell-based, Bombyx mori. The conditions noted are these: 30 min, IBMX. How it is done: BmN cells were plated in 12-well tissue culture plates (2 × 10^5 cells/well; Asahi glass, Yokohama, Japan) and maintained in normal growth medium (TC-100 [Applichem, Darmstadt, Germany], 10% FBS, and 50 μg/mL gentamycin). At 3 days post-seeding, the cells were pre-incubated in 800 μL of assay medium (TC-100 supplemented with 1 mM 1-methyl-3-isobutylxanthine [IBMX; Sigma-Aldrich, Tokyo, Japan]) and 1 mM phenylmethylsulfonyl fluoride for 10 min at 28°C. Following pre-incubation, 100 μL of a potential competitor and 100 μL of the peptide of interest were added sequentially to the medium and incubated at 28°C for 30 min. […] The extracted cAMP and cGMP were quantified in duplicate using a cAMP ELISA kit (Cayman Chemicals, Ann Arbor, MI, USA) and a cGMP EIA system (GE Healthcare, Hino, Japan), respectively. […]
Since ITPL and TK-4 are competitive ligands of BNGR-A24, we hypothesized that TK-4 might inhibit the cGMP signal induced by ITPL via the binding of ITPL to BNGR-A24. To confirm this hypothesis, we added an excess of TK-4 to BmN cells exposed to rITPL and evaluated the stimulatory effect of ITPL on the cGMP signal.
Fig 5 Effects of TK-4, rITPL, and spantide I on cyclic nucleotide levels in BmN cells. Intracellular cGMP (A) and cAMP (B) levels in BmN cells following 30-min incubation with the peptide and reagent of interest at the indicated concentrations were measured. […]

The target in test [4] is EGFP-fused BNGR-A24 (Bombyx mori neuropeptide G protein-coupled receptor A24) (Bombyx mori) (UniProt B3XXN7).
The target in test [5] is BNGR-A32 (Bombyx mori neuropeptide G protein-coupled receptor A32) (Bombyx mori).
The target in test [6] is EGFP-fused BNGR-A24 (Bombyx mori neuropeptide G protein-coupled receptor A24) (Bombyx mori) (UniProt B3XXN7). Put plainly: fluorescent-ligand binding on cells (confocal microscopy); CHO cells expressing EGFP-fused BNGR-A24, pre-incubated at 4°C for 30 min; unlabeled competitor added, then RR-labeled ligand; 4°C for 60 min; washed and fixed (4% formaldehyde in PBS); RR fluorescence normalized by EGFP.

The target of test [7] is T1, BNGR-A24. Put plainly: Ca2+ imaging assay of BNGR-A24 with competitor added together with the ligand. The class given is cell-based. How it is done:
The assays were performed as previously reported. […] At least three independent experiments were performed.
Next, we examined the effect of simultaneous addition of spantide I and rITPL on ligand competition. The dose-response curve of 10–300 nM rITPL shifted in a similar manner to that observed for TK-4.
Fig 3 Effect of spantide I on the response of BNGR-A24 to rITPL and TK-4. Spantide I (SP), a potential competitor, was added together with rITPL or TK-4 and the response of BNGR-A24 was monitored using the Ca^2+ imaging assay. Dose-response curves of the responses are presented as relative fluorescent intensity (mean ± S.D.; n = 3). Asterisks indicate significant differences for treatment with the same ligand without spantide I (P < 0.05; Dunnett’s test).

For orientation: EC50 means the concentration needed to bring the measured effect to its halfway point. Read a low EC50 as an effect from little substance. In test [1], `CC[C@H](C)[C@H](N)C(=O)N1CCC[C@H]1C(=O)N[C@@H](CCC(N)=O)C(=O)NCC(=O)N[C@@H](Cc1ccccc1)C(=O)N[C@@H](CC(C)C)C(=O)NCC(=O)N[C@@H](CCSC)C(=O)N[C@@H](CCCNC(=N)N)C(N)=O` [TK-1] (H-IPQGFLGMR-NH2; N-terminus assumed) gave an EC50 of 7.1 nM.
Still for that read-out and setting: next, `CSCC[C@H](NC(=O)[C@H](CC(N)=O)NC(=O)[C@H](C)NC(=O)[C@H](C)N)C(=O)N[C@@H](Cc1c[nH]cn1)C(=O)N[C@@H](CCC(N)=O)C(=O)N[C@@H](Cc1ccccc1)C(=O)N[C@@H](Cc1ccc(O)cc1)C(=O)NCC(=O)N[C@H](C(=O)N[C@@H](CCCNC(=N)N)C(N)=O)C(C)C` [TK-3] (H-AANMHQFYGVR-NH2; N-terminus assumed): 0.79 nM.
In the case of `CC[C@H](C)[C@H](NC(=O)[C@H](Cc1ccccc1)NC(=O)[C@H](CCCCN)NC(=O)CNC(=O)[C@H](CCCNC(=N)N)NC(=O)[C@@H](NC(=O)[C@H](CO)NC(=O)[C@H](CC(C)C)NC(=O)[C@H](CC(=O)O)NC(=O)[C@H](Cc1ccc(O)cc1)NC(=O)[C@@H]1CCCN1)[C@@H](C)CC)C(=O)NCC(=O)N[C@H](C(=O)N[C@@H](CCCNC(=N)N)C(N)=O)C(C)C` [TK-4] (H-PYDLSIRGKFIGVR-NH2; N-terminus assumed), it took 0.27 nM to reach a half-maximal effect in test [1] (EC50). Moreover, the “Fluorescence of RR-labeled rITPL on the cell surface” value in test [2] (1–100 μM unlabeled TK-4 added before RR-labeled rITPL) was “gradually decreased”. In addition, the “Effect on rITPL-induced cGMP levels” value in test [3] (BmN cells exposed to 100 nM rITPL, ≥3 μM TK-4 added as competitor) is listed as “significant decrease”. The “Intracellular cGMP levels” value in test [3] (BmN cells, peptide alone at concentrations as high as 10 μM, 28°C, cGMP EIA) is “failed to increase”.
For the compound B. mori tachykinin-related peptide TK-1, the EC50 of the Ca2+ imaging response (Fluo-4) of HEK293T cells co-expressing BNGR-A24 and Galpha15 in test [4] was found to be 7.1 nM.
Still for that read-out and setting: the value for B. mori tachykinin-related peptide TK-2 was 0.49 nM; that for B. mori tachykinin-related peptide TK-3 was 0.79 nM.
Take B. mori tachykinin-related peptide TK-4: the EC50 of the Ca2+ imaging response (Fluo-4) of HEK293T cells co-expressing BNGR-A24 and Galpha15 in test [4] stood at 0.27 nM.
In test [5], B. mori tachykinin-related peptide TK-5 showed an EC50 of the Ca2+ imaging response (Fluo-4) of HEK293T cells co-expressing BNGR-A32 and Galpha15 of 0.48 nM. Moreover, the EC50 of the Ca2+ imaging response (Fluo-4) of HEK293T cells co-expressing BNGR-A24 and Galpha15 in test [4] came out at 2.3 nM.
“Recombinant B. mori ion transport peptide-like (rITPL) (ligand)”: the percent reduction of the RR-labeled TK-4 signal at 20 uM rITPL in test [6] was 90%.
On to spantide I, for which the “Effect on response of BNGR-A24 to rITPL” value in test [7] (50 μM spantide I added with 10–300 nM rITPL, n = 3, vs no competitor) is on record as “significantly lower”. Moreover, the “Effect on response of BNGR-A24 to TK-4” value in test [7] (simultaneous treatment with 10 μM or 50 μM spantide I, n = 3, Dunnett's test P < 0.05) is “significantly decreased”. Also, in test [2] (50 μM spantide I as competitor), the “Fluorescence derived from RR-labeled TK-4” value is “nearly complete quenching” and the “Fluorescence derived from RR-labeled rITPL” value was “nearly complete quenching”.
